In a melting point compilation (Tetko et al.) one finds melting point data, which are given here for 108 compounds.

As usually defined, the melting point is the temperature, or range, at which the solid turns liquid. `O=Cc1ccc(OP(=S)(Oc2ccc(C=O)cc2)Oc2ccc(C=O)cc2)cc1` returned a melting point of 115 to 119 °C.

Compound `COC(=O)C(C)(C)C(CC(=O)O)c1ccccc1` (stereo not drawn) registered a melting point of 111 °C.

Compound `NCCCOCCCN` returned a melting point of 151 °C.

In turn, `Clc1ccc(C=NC2Nc3ccccc3N2)cc1` showed a melting point of 155 °C.

Regarding `CCCCN(CCO)CCCC`, the melting point was -75 °C.

In turn, `Oc1ccc(Cl)c2c1CCC2` registered a melting point of 92 °C.

The compound `N#CC1(N=NC2(C#N)CCCCC2)CCCCC1` came in with a melting point of 116 °C.

`CC(O)(C(=O)c1ccccc1)c1ccccc1` (stereo not drawn) came in with a melting point of 65 °C.

In the case of `Cc1[nH]nc(-c2ccccc2)c1C`, the melting point came to 104 °C.

As to `COC(=O)c1cc(OCc2cc(COc3cc(C(=O)OC)cc(C(=O)OC)c3)cc(COc3cc(C(=O)OC)cc(C(=O)OC)c3)c2)cc(C(=O)OC)c1`, the melting point came to 188 °C.

For the compound `Nc1cccnc1Cl`, the melting point was determined as 78 °C.

In the case of `CCOC(=O)OC(=O)C1=CC(C)(C)N(O)C1(C)C`, the melting point lay within 64 to 65 °C.

With `CC1=C(C(=O)OCc2ccccc2)C(c2ccc3ccccc3c2)NC(=O)N1C` (stereo not drawn), the melting point turned out to be 150 °C.

`O=C1Nc2c(C(=O)O)cccc2C1=O` displayed a melting point of 268 to 275 °C.

Compound `CCc1c(C)[nH]c2c1C(=O)C(CN1CCOCC1)CC2` (stereo not drawn) came in with a melting point of 180 °C.

Compound `CCCCCCCCCCc1ccc(C(C)=O)cc1` had a melting point of 33 to 35 °C.

`CC12C=CC(=O)C=C1CCC1C2CCC2(C)C1CCC2(C)O` (stereo not drawn) came in with a melting point of 164 °C.

`CC(C)(C)OC(=O)N1CCC(c2nc(C(=O)O)cs2)CC1` registered a melting point of 162 to 166 °C.

`O=C(c1ccccc1)c1coc(-c2ccc(Cl)cc2)c1S(=O)(=O)c1ccccc1` displayed a melting point of 96 to 97 °C.

Compound `COc1ccc(Br)cc1CO` had a melting point of 68 to 73 °C.

The compound `CC(O)c1ccc2ccccc2c1` (stereo not drawn) yielded a melting point of 74 °C.

`O=C1CSC(c2cccs2)C1` (stereo not drawn) returned a melting point of 55 to 58 °C.

As to `CCCCCCCCCCCCCCCCC(C)C`, the melting point was found to be 15 °C.

Regarding `c1ccc(-c2cnc(-c3cccc4ccccc34)o2)cc1`, the melting point lay within 104 to 106 °C.

Regarding `Cc1ccc(C(=O)C2=NOC3C(=O)N(c4ccc(O)cc4)C(=O)C23)cc1` (stereo not drawn), the melting point was 120 °C.

For the compound `O=C(O)c1cccc(CSc2cccs2)c1`, the melting point lay within 108 to 110 °C.

`O=C1CCCC(O)=C1Cl` yielded a melting point of 198 to 204 °C.

As for `c1ccc(-c2nnc3n2CN(c2ccccc2)CS3)cc1`, the melting point was found to be 205 °C.

As to `NCCCC1C=NNC1=O` (stereo not drawn), the melting point turned out to be 216 °C.

As to `O=C(O)c1cc(-c2ccco2)[nH]n1`, the melting point is 220 °C.

`Cc1cccc2ccoc12` had a melting point of 109 °C.

On to `N#Cc1c(Cl)c(Cl)c(Cl)c(C#N)c1Cl`, for which the melting point was 252 °C.

`O=c1ccc2cc3ccoc3c(O)c2o1` gave a melting point of 252 °C.

The compound `NC(=S)CS(=O)(=O)Cc1ccco1` registered a melting point of 128 to 130 °C.

For `O=C(C=Cc1ccc(F)cc1)c1ccccc1`, the melting point lay in the range of 84 to 88 °C.

`CCOC(=O)CCC(=O)OC(C(=O)c1ccccc1)c1ccccc1` (stereo not drawn) had a melting point of 48 to 57 °C.

In turn, `Cc1nn(Cc2ccc(C(=O)O)o2)c(C)c1Br` returned a melting point of 207 to 208 °C.

Compound `CN1CCN(C(=S)SSC(=S)N2CCN(C)CC2)CC1` showed a melting point of 142 to 143 °C.

Regarding `CC(C)CCC[C@@H](C)[C@H]1CC[C@H]2[C@@H]3CC[C@H]4C[C@H](O)CC[C@]4(C)[C@H]3CC[C@]12C`, the melting point came to 186 °C.

As for `CCC1(CC)C(=O)NC(=O)N(C)C1=O`, the melting point came to 155 °C.

Compound `O=C(O)c1ccccc1-c1cccnc1` showed a melting point of 188 °C.

Consider `CC(O)C(O)C(O)C(O)C=O` (stereo not drawn), for which the melting point turned out to be 122 °C.

In the case of `CC(=O)OC1CC[C@]2(C)[C@H]3CC[C@]4(C)C(=O)CC[C@H]4[C@@H]3C(=O)C[C@@]2(C)C1` (stereo partly drawn), the melting point was in the range of 153 to 157 °C.

In turn, `NC1=NCC2c3ccccc3Cc3ccccc3N12` (stereo not drawn) came in with a melting point of 206 °C.

`Cc1c(-c2ccccc2)oc2c(C(=O)O)cccc2c1=O` had a melting point of 235 °C.

`Cn1c(=O)c(C2=NNC(=O)C2=NNc2nccs2)c(O)c2ccccc21` returned a melting point of 301 °C.

On to `C[Si](C)(C)N(c1ccccc1)[Si](C)(C)C`, for which the melting point was found to be 16.5 °C.

Compound `Nc1ccc(Cl)cn1` came in with a melting point of 137 °C.

`Cc1c(C)c(C)c(C=O)c(C)c1C` came in with a melting point of 146 to 148 °C.

Compound `CCCCc1c(C)nc(N)nc1Cl` returned a melting point of 162 °C.

On to `C=Cc1ccc(OCc2ccccc2)c(OC)c1`, for which the melting point lay in the range of 48 to 55 °C.

As for `Fc1c(F)c(F)c(P(c2ccccc2)c2c(F)c(F)c(F)c(F)c2F)c(F)c1F`, the melting point is 61.5 °C.

Compound `c1ccc(CC(=NNc2cccc(NN=C(Cc3ccccc3)c3ccccc3)c2)c2ccccc2)cc1` displayed a melting point of 164 °C.

On to `N#CCc1ccc(OCc2c(F)cccc2Cl)cc1`, for which the melting point was in the range of 78 to 79 °C.

On to `O=C=Nc1cccc2c(N=C=O)cccc12`, for which the melting point turned out to be 130 °C.

`O=CCCl` displayed a melting point of -16.3 °C.

`CC1(C)C(C(=O)OC(C#N)c2cccc(Oc3ccccc3)c2)C1C(Br)C(Br)(Br)Br` (stereo not drawn) had a melting point of 143 °C.

As for `O=C(O)c1cccc(C(=O)O)n1`, the melting point lay within 248 to 250 °C.

For the compound `O=C(O)COc1ccc([N+](=O)[O-])cc1`, the melting point fell in the range of 182 to 188 °C.

Take `FC(F)(F)C(F)(F)C(F)(F)C(F)(F)C(F)(F)F`: the melting point was -100 °C.

The compound `COC(=O)c1ccno1` returned a melting point of 49 °C.

`N#Cc1c(F)cccc1-n1cccc1` registered a melting point of 67 to 69 °C.

In turn, `COC(=O)c1cc2c(OC)cccc2[nH]1` came in with a melting point of 140 to 142 °C.

As for `BrCC(CBr)CBr`, the melting point was -32 °C.

In the case of `COC1OC(COC(C)=O)C(OC2OC(COC(C)=O)C(OC(C)=O)C(OC(C)=O)C2OC(C)=O)C(OC(C)=O)C1OC(C)=O` (stereo not drawn), the melting point was determined as 131 °C.

As to `Cc1ccc(C(C)C(=O)O)cc1` (stereo not drawn), the melting point was determined as 41 °C.

With `N#Cc1ccc(F)c(F)c1`, the melting point amounted to 50 °C.

With `CC1CCC(C)(COC(=O)c2ccccc2C(=O)OCC2(C)CCC(C)C2(C)C)C1(C)C` (stereo not drawn), the melting point was determined as 80 °C.

As for `O=C(Cl)c1sc(Br)c2c1OCCO2`, the melting point was in the range of 154 to 155 °C.

`O=S(c1ccc(Cl)cc1)c1ccc(Cl)cc1`: the melting point lay within 140 to 145 °C.

Consider `CCCCC(C)CC` (stereo not drawn), for which the melting point was -100 °C.

Take `NNC(=O)c1ccccc1`: the melting point amounted to 115 °C.

In turn, `O=C(Nc1ccc(-c2ccc(NC(=O)c3ccccc3)cc2NC(=O)c2ccccc2)c(NC(=O)c2ccccc2)c1)c1ccccc1` gave a melting point of 279 °C.

Regarding `CCCCCCCCCC(=O)OC`, the melting point was -18 °C.

For the compound `O=C1NC(=O)C(=Cc2ccc(-c3ccc(Br)cc3)o2)C(=O)N1`, the melting point is 255 °C.

`C1CNCCNCCNCCN1`: the melting point was 108 to 113 °C.

For `Fc1cc(Br)c(F)cc1Br`, the melting point stood at 62 °C.

`CC(C)OC(=O)NC(C(=O)NC(C)c1nc2ccc(F)cc2s1)C(C)C` (stereo not drawn): the melting point is 153 °C.

As for `Cc1ccnc(C#N)c1`, the melting point was found to be 87 °C.

Turning to `O=S(=O)(Cl)c1ccc(-c2cc(C(F)(F)F)on2)s1`, the melting point lay in the range of 106 to 107 °C.

In turn, `CC(C)(CO)[N+](=O)[O-]` displayed a melting point of 89.5 °C.

In the case of `C1CC2OC2CC1C1CO1` (stereo not drawn), the melting point is -109 °C.

In turn, `CC(O)C(C)C(N)C(=O)O` (stereo not drawn) registered a melting point of 200 °C.

Compound `COC(=O)c1ccc(OC)nc1` gave a melting point of 51 °C.

In turn, `OCCN1CCN(CCCN2c3ccccc3C=Cc3ccccc32)CC1` showed a melting point of 100 °C.

The compound `C[C@]12C=C[C@H](O1)[C@H]1C(=O)OC(=O)[C@H]12` returned a melting point of 69 to 70 °C.

Compound `Cc1cc(F)ccc1O` registered a melting point of 37 to 38 °C.

With `COc1cc(CCNC(=O)Cc2ccc(OC)c(OCc3ccccc3)c2)ccc1OCc1ccccc1`, the melting point is 140 °C.

`O=C(O)/C=C/c1cccc(F)c1`: the melting point is 167 °C.

As to `O=C(NC(=S)c1ccc[nH]1)Nc1ccccc1`, the melting point lay in the range of 205 to 208 °C.

As for `CC12CCC3C(CCC4CC(OC=O)CCC43C)C1CC=C2C#Cc1ccccc1` (stereo not drawn), the melting point is 179 to 180 °C.

`C=COCCCC` registered a melting point of -92 °C.

For `[O-][P+](c1ccccc1)(c1ccccc1)C1C2=C(OC3=C1CCc1ccccc13)c1ccccc1CC2`, the melting point came to 215 °C.

Consider `NS(=O)(=O)c1ccc(SCCO)c([N+](=O)[O-])c1`, for which the melting point is 151 °C.

Turning to `O=C(O)C=Cc1ccc(OC(F)(F)F)cc1`, the melting point is 178 to 179 °C.

Consider `O=C(Cc1ccc(/N=C/c2ccccc2)cc1)c1ccc(/N=C/c2ccccc2)cc1`, for which the melting point is 181 °C.

`CCOC(=O)c1cnn(C)c1N` showed a melting point of 101 to 102 °C.

`CCCCCCCCNCCCCCCCC` showed a melting point of 35.5 °C.

In turn, `O=[N+]([O-])CCO` registered a melting point of -80 °C.

`N#Cc1cccc(N2CCCC2)n1` came in with a melting point of 73 to 74 °C.

The compound `O=[N+]([O-])c1ccc(Cl)c(C(F)(F)F)c1` yielded a melting point of 22 °C.

For the compound `Cc1ccc(NO)cc1`, the melting point was found to be 96 °C.

As to `O=C(NCCc1ccccc1)c1cc([N+](=O)[O-])cc([N+](=O)[O-])c1`, the melting point worked out at 204 °C.

The compound `OC1OCC(Cc2ccc3c(c2)OCO3)C1Cc1ccc2c(c1)OCO2` (stereo not drawn) gave a melting point of 132 °C.

Regarding `COc1ccc2c(c1)CCC(=Cc1ccccc1)C2=O`, the melting point is 75 to 75.5 °C.

Turning to `CCCCOc1ccc(-c2nn(CCC#N)c(=S)[nH]2)cc1`, the melting point came out at 115 °C.

In turn, `CCOC(=O)CC(=O)C(F)(F)F` came in with a melting point of -39 °C.

For `COC(=O)c1ccsc1N`, the melting point is 79 °C.
